Results: US11148991B2, “5-bromo-2-(alpha-hydroxypentyl)benzoic acid sodium salts in different crystal forms, and preparation method thereof” (priority 2013, dated 2021)

Tests used:
[1] = Stability in water and methanol solution; type: physicochemical; conditions: sodium salt
[2] = Solubility in water and methanol; type: physicochemical; conditions: sodium salt
rat MCAO model = experiment: Brain infarction volume and brain edema volume in rats with local brain ischemia (MCAO model); type: in vivo, Wistar rats
Text: Wistar rats (50% of rats is female and another 50% of rats is male); 5-bromo-2-(α-hydroxypentyl)benzoic acid sodium salt (BZP, in the form of amorphous form, crystal form A and crystal form B, prepared according to the present invention), prepared in double distilled water; […] is in the form of white powder, manufactured by Beijing Chemical Works.
Administration method: 5-bromo-2-(α-hydroxypentyl)benzoic acid sodium salt (BZP) was intravenously injected at one hour before MCAO, with the dosage of 12 mg/kg; 5-bromo-2-(α-hydroxypentyl)benzoic acid sodium salt (BZP) was used to intragastric administration at one hour before MCAO, with the dosage of 20 mg/kg. 2-(α-hydroxypentyl)benzoic acid potassium salt (NBP-K) was used as positive control, and its dosage (calculated in moles) is the same as that of 5-bromo-2-(α-hydroxypentyl)benzoic acid sodium salt, that is, the dosage of intravenous injection is 9.6 mg/kg, and the dosage of intragastric administration is 15.9 mg/kg.
Preparation of MCAO model: Establish a focal brain ischemia-reperfusion injury model by cerebral artery obstruction in rats with suture-occluded method. Rats were intraperitoneally injected with 10% chloral hydrate to anesthetize. Rats were fixed on back and the skin of neck center was incised. The left common carotid artery, external carotid artery, and internal carotid artery were subjected to blunt dissection. The pterygopalatine artery was ligated, only remaining cranial trunk of internal carotid artery; a prepared nylon rope (burning diameter 0.3 mm) was inserted via external carotid artery incision into the bifurcation of the […], and was pushed along the cranial direction of the internal carotid artery. […] This indicates one side of the middle cerebral artery occlusion model was completed. Sutured the incision, remained the end of nylon line out of the skin. For reperfusion, the nylon line was gently pulled out. If feel force of resistance, this indicates the end of nylon line has returned to the trunk of external carotid artery, thereby accomplishing reperfusion.
Determination of infarction volume: After being subjected to ischemia for 2 hours and reperfusion for 24 hours, the heads of rats were cut off. Forebrain was removed and cut into six pieces, each piece being 2 mm. The pieces were stained with TC, and incubated at 37° C. for 30 minutes. Normal issues were stained to be red, but the infarcted issues were stained to be white. Took photos with digital camera, and calculated the percentage of the infarcted area relative to the spherical area of brain by Photoshop.

[3] = Acute toxicity (LD50), rat; conditions: in vivo
[4] = Acute toxicity (LD50), mouse; conditions: in vivo
Rat = experiment: Sub-acute toxicity, rat
[5] = intragastric administration one hour before MCAO, BZP 20 mg/kg, NBP-K 15.9 mg/kg, sodium salt
[6] = intravenous injection one hour before MCAO, 12 mg/kg, sodium salt, 12 mg/kg
[7] = intravenous injection one hour before MCAO, BZP 12 mg/kg, NBP-K 9.6 mg/kg, ischemia 2 hours, reperfusion 24 hours, sodium salt
[8] = intravenous injection one hour before MCAO, BZP 12 mg/kg, NBP-K 9.6 mg/kg, sodium salt
[9] = intragastric administration one hour before MCAO, BZP 20 mg/kg, NBP-K 15.9 mg/kg
[10] = intravenous injection one hour before MCAO, 12 mg/kg

## CCCCC(O)c1ccc(Br)cc1C(=O)[O-].[Na+] (mixture of isomers) [BZP (mixture), 5-bromo-2-(α-hydroxypentyl)benzoic acid sodium salt, reference compound]
[1]; in methanol solution
  Stability: >12 h
[1]; in water
  Stability: >12 h
[2]
  Solubility in methanol: 1580 mg/mL
  Solubility in water: 2130 mg/mL

## CCCCC(O)c1ccc(Br)cc1C(=O)[O-].[Na+] (stereo not drawn) [5-bromo-2-(α-hydroxypentyl)benzoic acid sodium salt]
Rat MCAO model; at the same dosage, conclusion in words
  Activity compared with 2-(α-hydroxypentyl)benzoic acid potassium salt: obviously better than 2-(α-hydroxypentyl)benzoic acid potassium salt
Rat MCAO model; rats, conclusion in words
  Effect on brain tissue injury induced by obstruction of cerebral arteries: can obviously reduce brain tissue injury induced by obstruction of cerebral arteries

## CCCCC(O)c1ccc(Br)cc1C(=O)[O-].[Na+] (stereo not drawn) [BZP (crystal form A), 5-bromo-2-(α-hydroxypentyl)benzoic acid sodium salt]
Rat MCAO model; [5]
  Edema (%): 2.7 ± 1.30^aa** %
  Infarction volume (%): 7.13 ± 2.98 aa %
  Inhibition of edema (%): 87.55%
  Inhibition of infarction volume (%): 86.65%
Rat MCAO model; [6]
  Edema (%): 3.24 ± 4.11^aa* %
  Inhibition of edema (%): 81.28%
Rat MCAO model; [7]
  Infarction volume (%): 4.54 ± 1.73 aa %
Rat MCAO model; [8]
  Inhibition of infarction volume (%): 91.50%
[1]; in methanol solution, listed as BZP (Form A)
  Stability: >24 h
[1]; in water, listed as BZP (Form A)
  Stability: >20 h
[2]; listed as BZP (Form A)
  Solubility in methanol: 1800 mg/mL
  Solubility in water: 2360 mg/mL

## CCCCC(O)c1ccc(Br)cc1C(=O)[O-].[Na+] (stereo not drawn) [BZP (crystal form B), 5-bromo-2-(α-hydroxypentyl)benzoic acid sodium salt]
Rat MCAO model; [5]
  Edema (%): 2.87 ± 1.56^aa** %
  Infarction volume (%): 7.13 ± 2.98^aa** %
  Inhibition of edema (%): 85.09%
  Inhibition of infarction volume (%): 86.03%
Rat MCAO model; [6]
  Edema (%): 4.20 ± 2.03a %
  Inhibition of edema (%): 78.71%
Rat MCAO model; [7]
  Infarction volume (%): 4.76 ± 1.45 aa %
Rat MCAO model; [8]
  Inhibition of infarction volume (%): 91.09%
[1]; in methanol solution, listed as BZP (Form B)
  Stability: >24 h
[1]; in water, listed as BZP (Form B)
  Stability: >24 h
[2]; listed as BZP (Form B)
  Solubility in methanol: 1630 mg/mL
  Solubility in water: 2430 mg/mL

## CCCCC(O)c1ccccc1C(=O)[O-].[K+] (stereo not drawn) [NBP-K, 2-(α-hydroxypentyl)benzoic acid potassium salt, reference compound]
[3]; iv
  LD50: 230 mg/kg
[3]; po
  LD50: 623 mg/kg
Rat MCAO model; [9]
  Edema (%): 11.04 ± 1.48^aa** %
  Infarction volume (%): 22.28 ± 2.65^aa %
  Inhibition of edema (%): 42.65%
  Inhibition of infarction volume (%): 58.3%
Rat MCAO model; [10]
  Edema (%): 12.38 ± 1.29%
  Inhibition of edema (%): 9.37%
Rat MCAO model; intravenous injection one hour before MCAO, BZP 12 mg/kg, NBP-K 9.6 mg/kg
  Inhibition of infarction volume (%): 54.42%
Rat MCAO model; intravenous injection one hour before MCAO, BZP 12 mg/kg, NBP-K 9.6 mg/kg, ischemia 2 hours, reperfusion 24 hours
  Infarction volume (%): 24.35 ± 4.32^aa %
[4]; iv
  LD50: 303 mg/kg
[4]; po
  LD50: 880 mg/kg
Rat; ig
  Sub-acute: >20 mg/kg
Rat; iv
  Sub-acute: >12 mg/kg
